The text below walks through data of the NIST ThermoML archive (doi:10.1016/j.jct.2017.08.012).

SMILES strings stand for the structures. ± gives the expanded uncertainty stated by the source.

For the data set the following is noted: 101.33 kPa, Liquid, Vibrating tube method.

Usually mass density stands for the mass of a sample divided by its volume. Take `CCCCCC` [hexane]: the mass density (293.15 K) is 659.4 ± 4.1 kg/m3; the mass density (298.15 K) was 654.76 ± 4 kg/m3; the mass density (303.15 K) is 650.21 ± 4 kg/m3; the mass density (308.15 K) amounted to 645.43 ± 4 kg/m3; the mass density (313.15 K) is reported as 640.75 ± 4 kg/m3.
